According to patent US20090169643A1, “Composition for Enhancing Immune Function” (priority 2006, published 2009):

Legend:
[1] = system: spleen cell suspension of immunocompetent cells; assay: Metabolic activity of mouse immunocompetent cells during prolonged culture (WST-1 formazan, 144 h), Test Example 2; format: cell-based, Balb/c mice; conditions: for absorbance at 415 nm (formazan, index of metabolic activity): nigerooligosaccharide 0 ng/ml, Concanavalin A 0.4 μl/ml, 144 hours, mean of triplicate to hexylicate wells
Experimental: In this Test Example, the effect of the combined use of nigerooligosaccharide and zinc on the metabolic activity of immunocompetent cells during prolonged culture was assessed using nigerooligosaccharide and zinc in the same manner as Test Example 1. Spleens were aseptically harvested from ten-week-old female Balb/c mice, teased in RPMI1640 culture medium (GIBCO) supplemented with streptomycin and penicillin (SIGMA), and then passed through a #200 mesh screen to obtain spleen cell suspension of immunocompetent cells. After counting the cells in the spleen cell suspension with an automatic blood cell counter (Sysmex Corporation: type CDA-500), the suspension was adjusted to a concentration of 1×10^7 cells/ml in the above-mentioned RPMI1640 culture medium and plated in a volume of 50 μl per well into a 96-well culture plate. Concanavalin A (SIGMA), a cell-growth stimulating factor, was dissolved in the above-mentioned RPMI1640 culture medium, and 50 μl of the Concanavalin A solution was added to the cell suspension in each well to give a final concentration of 0.4 μl/ml. Additionally, zinc and nigerooligosaccharide were separately dissolved in the above-mentioned RPMI1640 culture medium. 50 μl of the zinc solution was added to each well to give a final concentration of 0, 1 or 2 ng/ml, and similarly, 50 μl of the nigerooligosaccharide solution was added to each well to give a final concentration of 0 or 1000 ng/ml. Thus-prepared immunocompetent cells were cultured in an incubator with 5% CO2 at 37° C. for 144 hours. […] The formazan concentration was determined from absorbance at a measurement wavelength of 415 nm (reference wavelength of 630 nm) using a microplate reader (Corona Electric Co., Ltd.: Type MTP-32).
The values in Table 2 represent absorbance at 415 nm as means of triplicate to hexylicate wells.

[2] = system: human peripheral mononuclear cells; assay: Metabolic activity of human peripheral mononuclear cells (WST-1 formazan, 48 h culture), Test Example 3; format: cell-based
Experimental: In the same manner as in Test Example 1, the synergic effect of nigerooligosaccharide and zinc on the metabolic activity of human peripheral mononuclear cells was assessed using nigerooligosaccharide and zinc. After 20 ml of blood collected from each healthy male adult was diluted 2-fold with calcium- and magnesium-free phosphate buffered saline (PBS), the diluted blood sample was overlaid onto 30 ml of a Ficoll-Paque PLUS (GE Healthcare Bio-Sciences) layer so gently as not to disturb the interface, followed by centrifugation at 400×g at 20° C. for 40 minutes. After the centrifugation, lymphocytes and monocytes present in the intermediate layer were carefully collected in a Pasteur pipette. The collected cell suspension was washed with 10-fold PBS twice. After the obtained mononuclear cells were counted with an automatic blood cell counter (Sysmex Corporation: type CDA-500), the suspension was adjusted to a concentration of 2×10^6 cells/ml in RPMI1640 culture medium supplemented with 10% fetal bovine serum, streptomycin and penicillin, and plated in a volume of 50 μl per well into a 96-well culture plate. […] The formazan concentration was determined from absorbance at a measurement wavelength of 415 nm (reference wavelength of 630 nm) using a microplate reader (Corona Electric Co., Ltd.: Type MTP-32).
The values in Table 3 represent absorbance at 415 nm as means±SD of triplicate wells. […]

[3] = system: spleen cell suspension of immunocompetent cells; assay: Metabolic activity of mouse immunocompetent cells (WST-1 formazan, 48 h culture), Test Example 1; format: cell-based, Balb/c mice
Source text: Zinc was used in the form of zinc sulfate dissolved in distilled water. Spleens were aseptically harvested from ten-week-old female Balb/c mice, teased in RPMI1640 culture medium (GIBCO) supplemented with streptomycin and penicillin (SIGMA), and then passed through a #200 mesh screen to obtain spleen cell suspension of immunocompetent cells. After counting the cells in the spleen cell suspension with an automatic blood cell counter (Sysmex Corporation: type CDA-500), the suspension was adjusted to a concentration of 1×10^7 cells/ml in the above-mentioned RPMI1640 culture medium and plated in a volume of 50 μl per well into a 96-well culture plate. Concanavalin A (SIGMA), a cell-growth stimulating factor, was dissolved in the above-mentioned RPMI1640 culture medium, and 50 μl of the Concanavalin A solution was added to the cell suspension in each well to give a final concentration of 2.0 μg/ml. Additionally, zinc and nigerooligosaccharide were separately dissolved in the above-mentioned RPMI1640 culture medium. […] The formazan concentration was determined from absorbance at a measurement wavelength of 415 nm (reference wavelength of 630 nm) using a microplate reader (Corona Electric Co., Ltd.: Type MTP-32). The values in Table 1 represent absorbance at 415 nm as means±SD of triplicate wells. […]

## O=S(=O)([O-])[O-].[Zn+2] [zinc, zinc sulfate]
[1]; summary of Table 2, 144 hours culture, proportion 1:1000 or 1:500
  metabolic activity of mouse immunocompetent cells during prolonged culture (in words): hardly raised the metabolic activity
[1]; zinc 1 ng/ml
  absorbance at 415 nm (formazan, index of metabolic activity): 0.793
[1]; zinc 2 ng/ml
  absorbance at 415 nm (formazan, index of metabolic activity): 0.786
[2]; summary of Table 3, proportion 1:1000
  metabolic activity of human immunocompetent cells (in words): hardly raised the metabolic activity
[2]; zinc 10 ng/ml, nigerooligosaccharide 0 μg/ml, Concanavalin A 2.0 μg/ml, 48 hours, mean±SD of triplicate wells
  absorbance at 415 nm (formazan, index of metabolic activity): 0.348 ± 0.003
[3]; summary of Table 1, 48 hours culture
  metabolic activity of mouse immunocompetent cells (in words): hardly raised the metabolic activity
[3]; zinc 1 ng/ml, nigerooligosaccharide 0 ng/ml, Concanavalin A 2.0 μg/ml, 48 hours, mean±SD of triplicate wells
  absorbance at 415 nm (formazan, index of metabolic activity): 0.815 ± 0.013
